The text below walks through data of patent US12371454B2, “Cyclic peptide compound having Kras inhibitory action” (priority 2019, dated 2025).

Molecules are shown by their SMILES. Starred links: 1 amine or outer side, 2 acyl side, 3 side chain; linkers in the order of their positions; H or OH if unused. Positions of bridges follow the written chain, without caps; N, C: chain ends. Non-standard residues stand in square brackets, D forms with d. Residues, ends and D or L forms follow the SMILES beside them. *: point of attachment. hPhe(3-Cl-4-CF3) = N[C@@H](CCc1ccc(C(F)(F)F)c(Cl)c1)C(=O)O; X88 = O=C([C@H](CCc1ccc(OC(F)(F)F)c(Cl)c1)N[*:1])[*:2]; NMePhe(4-Me) = CN[C@@H](Cc1ccc(C)cc1)C(=O)O; NMedβ3hAla = C[C@H](CC(=O)[*:2])N(C)[*:1]; NMeNva(5,5-F2) = CN[C@@H](CCC(F)F)C(=O)O; NMeGly(cPent) = CN[C@H](C(=O)O)C1CCCC1; NMeCha = CN[C@@H](CC1CCCCC1)C(=O)O; NMehLeu = CN[C@@H](CCC(C)C)C(=O)O; Hyp = O=C(O)[C@@H]1C[C@@H](O)CN1; NMeAhp(2) = CCCCC[C@H](NC)C(=O)O; NMeChg = CN[C@H](C(=O)O)C1CCCCC1; NMeI = CC[C@H](C)[C@H](NC)C(=O)O; X61 = O=C(CN(CC1COC1)[*:1])[*:2]; NMeD = CN[C@@H](CC(=O)O)C(=O)O; NMeL = CN[C@@H](CC(C)C)C(=O)O; NMeNle = CCCC[C@H](NC)C(=O)O; NMeV = CN[C@H](C(=O)O)C(C)C; d(β3hA) = C[C@@H](N)CC(=O)O; NMeS = CN[C@@H](CO)C(=O)O; Morpholide = C1CN(*)CCO1; NMeA = CN[C@@H](C)C(=O)O; Piperidide = C1CCN(*)CC1; Pyrrolidide = C1CCN(*)C1; Ac5c = NC1(C(=O)O)CCCC1; Aze = O=C(O)[C@@H]1CCN1; Sar = CNCC(=O)O; Propyl = CCC*

The test system of the assay is Human pancreatic cancer cell line AsPC-1. Nature of the assay: Measurement of AsPC-1 cell growth inhibition (AsPC-1 CGI). The conditions noted are these: 96 h. Type of assay: cell-based. In a few lines:
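AsPC-1 cells in 15% FBS RPMI-1640 were exposed to test compound for 96 hours at 37° C, with CellTiter-Glo as endpoint.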
Consider `CC(C)C[C@H]1C(=O)N[C@@H](C(C)C)C(=O)N(C)[C@@H](C)C(=O)N2CC[C@H]2C(=O)N(C)[C@@H](CC2CCCCC2)C(=O)N(C)CC(=O)N[C@@H](CCc2ccc(C(F)(F)F)c(Cl)c2)C(=O)N2CCC[C@H]2C(=O)NC2(CCCC2)C(=O)N(C)[C@@H](C(C)C)C(=O)N(C)[C@H](C(=O)N2CCCCC2)CC(=O)N1C` [Compound 1791] ([NMeL]V[NMeA][Aze][NMeCha][Sar][hPhe(3-Cl-4-CF3)]P[Ac5c][NMeV][NMeD]-Piperidide; lactam N-11), for which the concentration for half-maximal inhibition (IC50) (in general, the midpoint of a concentration-inhibition curve) was in the range of 100 to 500 nM. The compound `CC[C@H](C)[C@@H]1NC(=O)[C@H](CC(C)C)N(C)C(=O)C[C@@H](C(=O)N2CCCCC2)N(C)C(=O)[C@H](C2CCCCC2)N(C)C(=O)C2(CCCC2)NC(=O)[C@@H]2CCCN2C(=O)[C@H](CCc2ccc(C(F)(F)F)c(Cl)c2)NC(=O)CN(C)C(=O)[C@H](Cc2ccc(C)cc2)N(C)C(=O)[C@@H]2CCN2C(=O)[C@H](C)N(C)C1=O` [Compound 1795] ([NMeL]I[NMeA][Aze][NMePhe(4-Me)][Sar][hPhe(3-Cl-4-CF3)]P[Ac5c][NMeChg][NMeD]-Piperidide; lactam N-11) had an IC50 of 50 to 100 nM. Under `CC[C@H](C)[C@@H]1NC(=O)[C@H](CCC(F)F)N(C)C(=O)C[C@@H](C(=O)N2CCCCC2)N(C)C(=O)[C@H](C(C)C)N(C)C(=O)C2(CCCC2)NC(=O)[C@@H]2CCCN2C(=O)[C@H](CCc2ccc(C(F)(F)F)c(Cl)c2)NC(=O)CN(C)C(=O)[C@H](CC2CCCCC2)N(C)C(=O)[C@@H]2CCN2C(=O)[C@H](C)N(C)C1=O` [Compound 1797] ([NMeNva(5,5-F2)]I[NMeA][Aze][NMeCha][Sar][hPhe(3-Cl-4-CF3)]P[Ac5c][NMeV][NMeD]-Piperidide; lactam N-11) stands 100 to 500 nM; under `CC[C@H](C)[C@@H]1NC(=O)[C@H](CC(C)C)N(C)C(=O)C[C@@H](C)N(C)C(=O)[C@H](C(C)C)N(C)C(=O)C2(CCCC2)NC(=O)[C@@H]2CCCN2C(=O)[C@H](CCc2ccc(C(F)(F)F)c(Cl)c2)NC(=O)CN(C)C(=O)[C@H](CC2CCCCC2)N(C)C(=O)[C@@H]2CCN2C(=O)[C@H](C)N(C)C1=O` [Compound 1800] (cyclo([Ac5c][NMeV][NMedβ3hAla][NMeL]I[NMeA][Aze][NMeCha][Sar][hPhe(3-Cl-4-CF3)]P)), 50 to 100 nM. Under `CC[C@H](C)[C@@H]1NC(=O)[C@H](CC(C)C)N(C)C(=O)C[C@@H](C)NC(=O)[C@H](C(C)C)N(C)C(=O)C2(CCCC2)NC(=O)[C@@H]2CCCN2C(=O)[C@H](CCc2ccc(C(F)(F)F)c(Cl)c2)NC(=O)CN(C)C(=O)[C@H](Cc2ccc(C)cc2)N(C)C(=O)[C@@H]2CCN2C(=O)[C@H](C)N(C)C1=O` [Compound 1801] (cyclo([Ac5c][NMeV][d(β3hA)][NMeL]I[NMeA][Aze][NMePhe(4-Me)][Sar][hPhe(3-Cl-4-CF3)]P)) stands 50 to 100 nM; under `CCCOC[C@H]1C(=O)N(C)CC(=O)N[C@@H](CCc2ccc(C(F)(F)F)c(Cl)c2)C(=O)N2CCC[C@H]2C(=O)NC2(CCCC2)C(=O)N(C)[C@@H](C2CCCCC2)C(=O)N(C)[C@H](C(=O)N2CCCCC2)CC(=O)N(C)[C@@H](CC(C)C)C(=O)N[C@@H]([C@@H](C)CC)C(=O)N(C)CC(=O)N(C)CC(=O)N1C` [Compound 1805, (3S,9S,18S,21S,25S,28S,34S)-3-[2-[3-chloro-4-(trifluoromethyl)phenyl]ethyl]-28-cyclohexyl-21-isobutyl-7,10,13,16,22,26,29-heptamethyl-18-[(1S)-1-methylpropyl]-25-(piperidine-1-carbonyl)-9-(propoxymethyl)spiro[1,4,7,10,13,16,19,22,26,29,32-undecazabicyclo[32.3.0]heptatriacontane-31,1′-cyclopentane]-2,5,8,11,14,17,20,23,27,30,33-undecone] ([NMeL]I[Sar][Sar][NMeS](Propyl)[Sar][hPhe(3-Cl-4-CF3)]P[Ac5c][NMeChg][NMeD]-Piperidide; lactam N-11), 50 to 100 nM; under `CC[C@H](C)[C@@H]1NC(=O)[C@H](CC(C)C)N(C)C(=O)C[C@@H](C(=O)N2CCCCC2)N(C)C(=O)[C@H](C(C)C)N(C)C(=O)C2(CCCC2)NC(=O)[C@@H]2CCCN2C(=O)[C@H](CCc2ccc(C(F)(F)F)c(Cl)c2)NC(=O)CN(C)C(=O)[C@H](Cc2ccc(C)cc2)N(C)C(=O)[C@@H]2CCN2C(=O)[C@H](C)N(C)C1=O` [Compound 1828] ([NMeL]I[NMeA][Aze][NMePhe(4-Me)][Sar][hPhe(3-Cl-4-CF3)]P[Ac5c][NMeV][NMeD]-Piperidide; lactam N-11), 100 to 500 nM. The compound `CC[C@H](C)[C@@H]1NC(=O)[C@H](CCC(C)C)N(C)C(=O)C[C@@H](C(=O)N2CCCCC2)N(C)C(=O)[C@H](C(C)C)N(C)C(=O)C2(CCCC2)NC(=O)[C@@H]2CCCN2C(=O)[C@H](CCc2ccc(C(F)(F)F)c(Cl)c2)NC(=O)CN(C)C(=O)[C@H](CC2CCCCC2)N(C)C(=O)[C@@H]2CCN2C(=O)[C@H](C)N(C)C1=O` [Compound 1833] ([NMehLeu]I[NMeA][Aze][NMeCha][Sar][hPhe(3-Cl-4-CF3)]P[Ac5c][NMeV][NMeD]-Piperidide; lactam N-11) displayed a half-maximal inhibitory concentration (IC50) of 100 to 500 nM. `CCO[C@@H]1C[C@H]2C(=O)NC3(CCCC3)C(=O)N(C)[C@@H](CC(C)C)C(=O)N(C)[C@H](C)CC(=O)N(C)[C@@H](CC(C)C)C(=O)N[C@@H]([C@@H](C)CC)C(=O)N(C)CC(=O)N(C)CC(=O)N(C)[C@@H](CC3CCCCC3)C(=O)N(C)CC(=O)N[C@@H](CCc3ccc(C(F)(F)F)c(Cl)c3)C(=O)N2C1` [Compound 1851] (cyclo([Ac5c][NMeL][NMedβ3hAla][NMeL]I[Sar][Sar][NMeCha][Sar][hPhe(3-Cl-4-CF3)][Hyp](Et))) came in with an IC50 of 20 to 50 nM. Consider `CC[C@H](C)[C@@H]1NC(=O)[C@H](CC(C)C)N(C)C(=O)C[C@@H](C(=O)N2CCCC2)N(C)C(=O)[C@H](C2CCCCC2)N(C)C(=O)C2(CCCC2)NC(=O)[C@@H]2CCCN2C(=O)[C@H](CCc2ccc(C(F)(F)F)c(Cl)c2)NC(=O)CN(C)C(=O)[C@H](Cc2ccc(C)cc2)N(C)C(=O)[C@@H]2CCN2C(=O)[C@H](C)N(C)C1=O` [Compound 1852] ([NMeL]I[NMeA][Aze][NMePhe(4-Me)][Sar][hPhe(3-Cl-4-CF3)]P[Ac5c][NMeChg][NMeD]-Pyrrolidide; lactam N-11), for which the IC50 is 20 to 50 nM. Regarding `CCCCC[C@H]1C(=O)N(C)CC(=O)N[C@@H](CCc2ccc(C(F)(F)F)c(Cl)c2)C(=O)N2CCC[C@H]2C(=O)NC2(CCCC2)C(=O)N(C)[C@@H](C(C)C)C(=O)N(C)[C@H](C(=O)N2CCCCC2)CC(=O)N(C)[C@@H](CC(C)C)C(=O)N[C@@H]([C@@H](C)CC)C(=O)N(C)[C@@H](C)C(=O)N2CC[C@H]2C(=O)N1C` [Compound 1854] ([NMeL]I[NMeA][Aze][NMeAhp(2)][Sar][hPhe(3-Cl-4-CF3)]P[Ac5c][NMeV][NMeD]-Piperidide; lactam N-11), the IC50 lay in the range of 100 to 500 nM. For `CCCC[C@H]1C(=O)N(C)[C@H](C(=O)N2CCCCC2)CC(=O)N(C)[C@@H](CC(C)C)C(=O)N[C@@H]([C@@H](C)CC)C(=O)N(C)[C@@H](C)C(=O)N2CC[C@H]2C(=O)N(C)[C@@H](CC2CCCCC2)C(=O)N(C)CC(=O)N[C@@H](CCc2ccc(C(F)(F)F)c(Cl)c2)C(=O)N2CCC[C@H]2C(=O)NC2(CCCC2)C(=O)N1C` [Compound 1859] ([NMeL]I[NMeA][Aze][NMeCha][Sar][hPhe(3-Cl-4-CF3)]P[Ac5c][NMeNle][NMeD]-Piperidide; lactam N-11), the concentration for half-maximal inhibition (IC50) fell in the range of 100 to 500 nM. `CC[C@H](C)[C@@H]1NC(=O)[C@H]([C@@H](C)CC)N(C)C(=O)C[C@@H](C(=O)N2CCCCC2)N(C)C(=O)[C@H](C(C)C)N(C)C(=O)C2(CCCC2)NC(=O)[C@@H]2CCCN2C(=O)[C@H](CCc2ccc(C(F)(F)F)c(Cl)c2)NC(=O)CN(C)C(=O)[C@H](CC2CCCCC2)N(C)C(=O)[C@@H]2CCN2C(=O)[C@H](C)N(C)C1=O` [Compound 1863] ([NMeI]I[NMeA][Aze][NMeCha][Sar][hPhe(3-Cl-4-CF3)]P[Ac5c][NMeV][NMeD]-Piperidide; lactam N-11): the concentration for half-maximal inhibition (IC50) is 100 to 500 nM.

`CC[C@H](C)[C@@H]1NC(=O)[C@H](CC(C)C)N(C)C(=O)C[C@@H](C(=O)N2CCCC2)N(C)C(=O)[C@H](C(C)C)N(C)C(=O)C2(CCCC2)NC(=O)[C@@H]2CCCN2C(=O)[C@H](CCc2ccc(C(F)(F)F)c(Cl)c2)NC(=O)CN(C)C(=O)[C@H](Cc2ccc(C)cc2)N(C)C(=O)[C@@H]2CCN2C(=O)[C@H](C)N(C)C1=O` [Compound 1866] ([NMeL]I[NMeA][Aze][NMePhe(4-Me)][Sar][hPhe(3-Cl-4-CF3)]P[Ac5c][NMeV][NMeD]-Pyrrolidide; lactam N-11) had a half-maximal inhibitory concentration (IC50) of 100 to 500 nM. In the case of `CCCOC[C@H]1C(=O)N(C)CC(=O)N[C@@H](CCc2ccc(C(F)(F)F)c(Cl)c2)C(=O)N2CCC[C@H]2C(=O)NC2(CCCC2)C(=O)N(C)[C@@H](C2CCCCC2)C(=O)N(C)[C@H](C(=O)N2CCOCC2)CC(=O)N(C)[C@@H](CC(C)C)C(=O)N[C@@H]([C@@H](C)CC)C(=O)N(C)CC(=O)N(C)CC(=O)N1C` [Compound 1966] ([NMeL]I[Sar][Sar][NMeS](Propyl)[Sar][hPhe(3-Cl-4-CF3)]P[Ac5c][NMeChg][NMeD]-Morpholide; lactam N-11), the concentration for half-maximal inhibition (IC50) lay within 50 to 100 nM.

In turn, `CC[C@H](C)[C@@H]1NC(=O)[C@H](CC(C)C)N(C)C(=O)C[C@@H](C(=O)N2CCCCC2)N(C)C(=O)[C@H](C2CCCCC2)N(C)C(=O)C2(CCCC2)NC(=O)CN(CC2COC2)C(=O)[C@H](CCc2ccc(C(F)(F)F)c(Cl)c2)NC(=O)CN(C)C(=O)[C@H](CC2CCCCC2)N(C)C(=O)CN(C)C(=O)CN(C)C1=O` [Compound 2031] ([NMeL]I[Sar][Sar][NMeCha][Sar][hPhe(3-Cl-4-CF3)][X61][Ac5c][NMeChg][NMeD]-Piperidide; lactam N-11) registered an IC50 of 100 to 500 nM. For the compound `CC[C@H](C)[C@@H]1NC(=O)[C@H](CC(C)C)N(C)C(=O)C[C@@H](C(=O)N2CCCCC2)N(C)C(=O)[C@H](C2CCCC2)N(C)C(=O)C2(CCCC2)NC(=O)[C@@H]2CCCN2C(=O)[C@H](CCc2ccc(OC(F)(F)F)c(Cl)c2)NC(=O)CN(C)C(=O)[C@H](CC2CCCCC2)N(C)C(=O)[C@@H]2CCN2C(=O)[C@H](C)N(C)C1=O` [Compound 2057] ([NMeL]I[NMeA][Aze][NMeCha][Sar][X88]P[Ac5c][NMeGly(cPent)][NMeD]-Piperidide; lactam N-11), the half-inhibitory concentration (IC50) is 50 to 100 nM.
